# Data reported in paper PMC12299463, “Cladolosides of Groups S and T: Triterpene Glycosides from the Sea Cucumber Cladolabes schmeltzii with Unique Sulfation; Human Breast Cancer Cytotoxicity and QSAR” (Marine Drugs, 2025).
# How the values were obtained:
# human erythrocytes = test: Hemolytic activity against human erythrocytes; format: cell-based; conditions: for ED50, Erythrocytes (hemolytic activity): 1 h at 37 °C
# Description: A total of 450 g of human blood (B(III) Rh+) was used to obtain erythrocytes by centrifuging three times for 5 min with phosphate-buffered saline (PBS) (pH 7.4) at 4 °C on a centrifuge LABOFUGE 400R (Heraeus, Hanau, Germany). Ice-cold PBS (pH 7.4) was used for resuspension of erythrocyte residue to a final optical density of 1.5 at 700 nm. Then, 20 µL of tested compound solutions or control (cucumarioside A0-1 [15]) were added to 180 µL of erythrocyte suspension in V-bottom 96-well plates and incubated for 1 h at 37 °C. After centrifugation (900 g, 10 min, laboratory centrifuge LMC-3000 (Biosan, Riga, Latvia)), 100 µL of supernatant was transferred into new flat plates. The values of erythrocyte lysis were measured on microplate photometer Multiskan FC (Thermo Fisher Scientific, Waltham, MA, USA) at λ = 570 nm as hemoglobin concentration in supernatant. […] All the experiments were carried out in triple repetitions, p < 0.05.
# [1] = test system: MCF-10A non-tumor mammary epithelial cell line; test: in vitro; format: cell-based, human; conditions: MCF-10A; for IC50: MTT assay, read-out: Cytotoxicity, IC50, MCF-10A
# [2] = test system: MCF-7 human breast cancer cells; test: cells; format: cell-based; conditions: for IC50: MTT assay, MCF-7, read-out: Cytotoxicity, IC50, MCF-7; for Selectivity Index (SI), MCF-7: ratio of IC50 for healthy (MCF-10A) and MCF-7 cells;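 as to all read-outs here: IC50 values, including those behind the selectivity ratio, derive from formazan absorbance at 570 nm, tested in triplicate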
# [3] = test system: T-47D human breast cancer cells; test: cells; format: cell-based; conditions: for IC50: MTT assay, T-47D, read-out: Cytotoxicity, IC50, T-47D; for Selectivity Index (SI), T-47D: ratio of IC50 for healthy (MCF-10A) and T-47D cells;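 as to all read-outs here: cell viability read as absorbance of formazan dye at 570 nm, each experiment run in triplicate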
# [4] = test system: MDA-MB-231 triple-negative breast cancer cells; test: cells; format: cell-based, human; conditions: for IC50: MTT assay, MDA-MB-231, read-out: Cytotoxicity, IC50, MDA-MB-231; for Selectivity Index (SI), MDA-MB-231: ratio of IC50 for healthy (MCF-10A) and MDA-MB-231 cells
Compound,IC50 [1] [µM],IC50 [2] [µM],"Selectivity Index (SI), MCF-7 [2]",IC50 [3] [µM],"Selectivity Index (SI), T-47D [3]",IC50 [4] [µM],"Selectivity Index (SI), MDA-MB-231 [4]","Hemolytic (membranolytic) activity, in words (human erythrocytes)","ED50, Erythrocytes (hemolytic activity) (human erythrocytes) [µM]",also measured
"CO[C@@H]1[C@@H](O)[C@H](O[C@@H]2[C@@H](O)[C@H](O[C@H]3[C@H](O)[C@@H](O)[C@H](O[C@H]4[C@H](O[C@H]5CC[C@]6(C)C7=CCC89C(=O)O[C@@](C)([C@@H](CCC(C)C)OC(C)=O)[C@H]8[C@@H](OC(C)=O)C[C@@]9(C)[C@@H]7CC[C@H]6C5(C)C)OC[C@@H](O[C@@H]5O[C@H](CO)[C@@H](O)[C@H](O)[C@H]5O)[C@@H]4O)O[C@@H]3C)OC[C@H]2O)O[C@H](COS(=O)(=O)[O-])[C@H]1O.[Na+] (some centres unmarked) [Cladoloside I1 (28), cladoloside I1]",13.4 ± 0.92,11.2 ± 1.02,1.20,9.91 ± 0.68,1.36,3.02 ± 0.28,4.45,–,–,"ED50, Erythrocytes (hemolytic activity) (human erythrocytes; listed as I1 (28)): 1.72 ± 0.10 µM; ED50, Erythrocytes (hemolytic activity) (human erythrocytes; listed as cladoloside I1 (28)): 1.72 µM"
"CO[C@@H]1[C@@H](O)[C@H](O[C@@H]2[C@@H](O)[C@H](O[C@H]3[C@H](O)[C@@H](O)[C@H](O[C@H]4[C@H](O[C@H]5CC[C@]6(C)C7=CCC89C(=O)O[C@@](C)([C@@H](CCC(C)C)OC(C)=O)[C@H]8[C@@H](OC(C)=O)C[C@@]9(C)[C@@H]7CC[C@H]6C5(C)C)OC[C@@H](O[C@@H]5O[C@H](CO)[C@@H](O)[C@H](O)[C@H]5O)[C@@H]4O)O[C@@H]3C)OC[C@H]2O)O[C@H](CO)[C@H]1O (some centres unmarked) [Cladoloside B1 (11), cladoloside B1]",> 20,> 20,–,13 ± 1.07,>1.54,10.1 ± 1,>1.98,–,–,"ED50, Erythrocytes (hemolytic activity) (human erythrocytes; listed as B1 (11)): 0.55 ± 0.04 µM; ED50, Erythrocytes (hemolytic activity) (human erythrocytes; listed as cladoloside B1 (11)): 0.55 µM"
"C=C(C)CC[C@@H](OC(C)=O)[C@]1(C)OC(=O)C23CC=C4[C@@H](CC[C@H]5C(C)(C)[C@@H](O[C@@H]6OC[C@@H](O[C@@H]7O[C@H](CO)[C@@H](O)[C@H](O)[C@H]7O)[C@H](O)[C@H]6O[C@@H]6O[C@H](C)[C@@H](O[C@@H]7OC[C@@H](O)[C@H](O[C@@H]8O[C@H](CO)[C@@H](O)[C@H](OC)[C@H]8O)[C@H]7O)[C@H](O)[C@H]6O)CC[C@]45C)[C@]2(C)C[C@H](OC(C)=O)[C@@H]31 (some centres unmarked) [Cladoloside B2 (12), cladoloside B2]",12.2 ± 1.2,14.5 ± 0.48,0.84,12.5 ± 0.96,0.98,3.92 ± 0.35,3.12,high activity,–,"ED50, Erythrocytes (hemolytic activity) (human erythrocytes; listed as B2 (12)): 0.31 ± 0.02 µM; ED50, Erythrocytes (hemolytic activity) (human erythrocytes; listed as cladoloside B2 (12)): 0.31 µM"
"C=C(C)CCC[C@]1(C)OC(=O)C23CC=C4[C@@H](CC[C@H]5C(C)(C)[C@@H](O[C@@H]6OC[C@@H](O[C@@H]7O[C@H](CO)[C@@H](O)[C@H](O[C@@H]8O[C@H](COS(=O)(=O)[O-])[C@@H](O)[C@H](OC)[C@H]8O)[C@H]7O)[C@H](O)[C@H]6O[C@@H]6O[C@H](C)[C@@H](O[C@@H]7OC[C@@H](O)[C@H](O)[C@H]7O)[C@H](O)[C@H]6O)CC[C@]45C)[C@]2(C)CC(=O)[C@@H]31.[Na+] (some centres unmarked) [Cladoloside J1 (30), Cladoloside J1]",> 20,> 20,–,> 20,–,6.18 ± 0.54,>3.24,–,1.10 ± 0.10,–
"C=C(C)CC[C@@H](OC(C)=O)[C@]1(C)OC(=O)C23CC=C4[C@@H](CC[C@H]5C(C)(C)[C@@H](O[C@@H]6OC[C@@H](O[C@@H]7OC[C@@H](O)[C@H](O[C@@H]8O[C@H](CO)[C@@H](O)[C@H](OC)[C@H]8O)[C@H]7O)[C@H](O)[C@H]6O[C@@H]6O[C@H](C)[C@@H](O[C@@H]7OC[C@@H](O)[C@H](O[C@@H]8O[C@H](CO)[C@@H](O)[C@H](OC)[C@H]8O)[C@H]7O)[C@H](O)[C@H]6O)CC[C@]45C)[C@]2(C)C[C@H](OC(C)=O)[C@@H]31 (some centres unmarked) [Cladoloside G (25), cladoloside G]",> 20,> 20,–,> 20,–,3.95 ± 0.38,>5.06,high activity,–,"ED50, Erythrocytes (hemolytic activity) (human erythrocytes; listed as G (25)): 0.35 ± 0.04 µM; ED50, Erythrocytes (hemolytic activity) (human erythrocytes; listed as cladoloside G (25)): 0.35 µM"
"C=C(C)CCC[C@]1(C)OC(=O)C23CC=C4[C@@H](CC[C@H]5C(C)(C)[C@@H](O[C@@H]6OC[C@@H](O)[C@H](O)[C@H]6O[C@@H]6O[C@H](C)[C@@H](O[C@@H]7OC[C@@H](O)[C@H](O[C@@H]8O[C@H](CO)[C@@H](O)[C@H](OC)[C@H]8O)[C@H]7O)[C@H](O)[C@H]6O)CC[C@]45C)[C@]2(C)C[C@H](OC(C)=O)[C@@H]31 (some centres unmarked) [A3 (7), cladoloside A3]",> 20,> 20,–,> 20,–,> 20,–,low hemolytic activity,7.58 ± 0.69,"ED50, Erythrocytes (hemolytic activity) (human erythrocytes; listed as cladoloside A3 (7)): 7.58 µM"
cladoloside C [Cladoloside C (13)],> 20,> 20,–,12.4 ± 0.66,>1.61,13 ± 0.8,>1.54,high activity,–,"ED50, Erythrocytes (hemolytic activity) (human erythrocytes; listed as C (13)): 0.44 ± 0.05 µM; ED50, Erythrocytes (hemolytic activity) (human erythrocytes; listed as cladoloside C (13)): 0.44 µM"
"C=C(C)CCC[C@]1(C)OC(=O)C23CC=C4[C@@H](CC[C@H]5C(C)(C)[C@@H](O[C@@H]6OC[C@@H](O[C@@H]7O[C@H](CO)[C@@H](O)[C@H](O[C@@H]8O[C@H](CO)[C@@H](O)[C@H](OC)[C@H]8O)[C@H]7O)[C@H](O)[C@H]6O[C@@H]6O[C@H](C)[C@@H](O[C@@H]7OC[C@@H](O)[C@H](O[C@@H]8O[C@H](CO)[C@@H](O)[C@H](O)[C@H]8O)[C@H]7O)[C@H](O)[C@H]6O)CC[C@]45C)[C@]2(C)CC(=O)[C@@H]31 (some centres unmarked) [Cladoloside P2 (41), Cladoloside P2]",11.1 ± 0.74,16.3 ± 1.03,0.68,10.6 ± 0.61,1.05,6.92 ± 0.44,1.60,strong hemolytics,0.17 ± 0.02,–
"C=C(C)CC[C@@H](OC(C)=O)[C@]1(C)OC(=O)C23CC=C4[C@@H](CC[C@H]5C(C)(C)[C@@H](O[C@@H]6OC[C@@H](O[C@@H]7OC[C@@H](O)[C@H](O[C@@H]8O[C@H](CO)[C@@H](O)[C@H](O)[C@H]8O)[C@H]7O)[C@H](O)[C@H]6O[C@@H]6O[C@H](C)[C@@H](O[C@@H]7OC[C@@H](O)[C@H](O[C@@H]8O[C@H](CO)[C@@H](O)[C@H](OC)[C@H]8O)[C@H]7O)[C@H](O)[C@H]6O)CC[C@]45C)[C@]2(C)C[C@H](OC(C)=O)[C@@H]31 (some centres unmarked) [Cladoloside D (18), Cladoloside D]",> 20,15.3 ± 0.94,>1.31,14.9 ± 0.85,>1.34,2.98 ± 0.24,>6.7,high activity,0.29,"ED50, Erythrocytes (hemolytic activity) (human erythrocytes; listed as D (18)): 0.29 ± 0.03 µM; Toxicity to normal mammary cells MCF-10A, in words [1]: non-toxic"
